Results from patent US11712414B2, “Oral pharmaceutical composition for preventing or treating dry eye syndrome comprising rebamipide or a prodrug thereof” (SAMJIN PHARMACEUTICAL CO., LTD., priority 2013, dated 2023).

System: animal model of dry eye syndrome
Assay: Efficacy analysis of drugs using an animal model of dry eye syndrome (overall, FIGS. 1 to 15)
Assay type: in vivo, C57BL/6 mice
Details: oral administration, overall statement
Description: Experimental Example 1: Efficacy Analysis of Drugs Using an Animal Model of Dry Eye Syndrome
<1-1> Construction of an Animal Model of Dry Eye Syndrome
Eight-week old male C57BL/6 mice (Charles River laboratories) were quarantined for one week and divided into several groups of eight animals evenly according to their average body weight and standard deviation.
For experimental groups (administered with Examples […]), dry eye syndrome was induced by subcutaneous injection of scopolamine (2.5 mg/mL, Sigma-Aldrich) for 10 days with exposure to air draft (25-40% relative humidity) for 18 hours per day. Then, mice were orally administered with the suspensions of Examples 1 to 29, twice a day for total 10 days, respectively.
Meanwhile, for a normal group, neither the drug nor the vehicle was administered to normal mice. And, for a control group, the vehicle was administered to the mice with dry eye syndrome.

In the case of `O=C(NC(Cc1cc(=O)[nH]c2ccccc12)C(=O)O)c1ccc(Cl)cc1` (stereo not shown) [Rebamipide, 2-(4-chlorobenzoyl-amino)-3-[2(1H)-quinolon-4-yl]propionic acid], the “therapeutic effects on dry eye syndrome” value is reported as “exhibits therapeutic effects on dry eye syndrome”.
